Results published in EPA's ToxValDB 9.5 (doi:10.2903/j.efsa.2016.4492).
≈ marks a conversion by molar mass, not a printed value.

What was measured:
Apis mellifera = conditions: acute, mortality
Typhlodromus pyri = experiment: LR50; higher = less toxic; conditions: not reported; mortality
Daphnia magna = conditions: chronic/long-term; duration: 21 days
Folsomia candida = conditions: chronic/long-term; duration: 28 days
Pimephales promelas = conditions: chronic/long-term; duration: 32 days
Myriophyllum aquaticum = conditions: chronic/long-term; duration: 7 days; growth
Canidae = conditions: chronic; duration: 1 years; oral; Dog Other; body weight
Colinus virginianus = conditions: mortality
Oncorhynchus mykiss = conditions: acute; duration: 96 hours; mortality

Compound: O=C1CC=C([O-])N=N1.[K+] [Maleic hydrazide, potassium salt]
- LD50 (Apis mellifera; dermal): > 100 µg/piece
- LD50 (Apis mellifera; oral, unspecified): > 100 µg/piece

Compound: O=c1ccc(=O)[nH][nH]1 [Maleic hydrazide]
- LR50 (Typhlodromus pyri): < 3000 g/ha
- NOEC (Daphnia magna): 0.57 mg/L
- NOEC (Folsomia candida): 113 mg/kg
- NOEC (Pimephales promelas): 9.6 mg/L
- NOEC (Myriophyllum aquaticum): 3.2 mg/L
- NOAEL (Canidae): 25 mg/kg-day
- LD50 (Colinus virginianus; acute, oral): > 1490 mg/kg
- NOEC (Colinus virginianus; chronic): 542 mg/kg-day
- LD50 (Rattus norvegicus; acute, oral, M/F, mortality): > 2000 mg/kg
- NOAEL (Rattus norvegicus; chronic, duration: 2 years, body weight): 25 mg/kg-day
- NOAEL (Rattus norvegicus; reproduction developmental, body weight): 398 mg/kg-day
- NOAEL (Rattus norvegicus; short-term, duration: 28 days, inhalation): 22 mg/kg-day
- LC50 (Oncorhynchus mykiss): 79.4 µg/mL (≈ 708 µM)
